Measured values as given in patent US7868135B2, “Compositions of lipopeptide antibiotic derivatives and methods of use thereof” (priority 2003, dated 2011).
Where two headings read alike, the source gives them in different places. Starred links: 1 amine or outer side, 2 acyl side, 3 side chain; linkers in the order of their positions; H or OH if unused. Positions of bridges follow the written chain, without caps; N, C: chain ends. Non-standard residues stand in square brackets, D forms with d. Residues, ends and D or L forms follow the SMILES beside them. ξ: configuration not given here. *: point of attachment. X37 = CC(NC(=O)[C@@H](N)CCCCN)C(N[*:1])C(=O)[*:2]; Benzoyl(4-OC10H21) = CCCCCCCCCCOc1ccc(C(=O)*)cc1; Hexadecanesulfonyl = CCCCCCCCCCCCCCCCS(=O)(=O)*; ξAbu(3ξ-NHCOCH2NH2) = CC(NC(=O)CN)C(N)C(=O)O; ξAbu(βξ-NH2) = CC(N[*:3])C(N[*:1])C(=O)[*:2]; Phac(3-amino) = O=C(Cc1cccc(N[*:1])c1)[*:2]; Pentadecanoyl = CCCCCCCCCCCCCCC(=O)*; X8 = O=C(/C=C/c1ccc(N[*:1])cc1)[*:2]; Bta = N[C@@H](Cc1csc2ccccc12)C(=O)O; Stearoyl = CCCCCCCCCCCCCCCCCC(=O)*; ξAsp(βξ-Me) = CC(C(=O)O)C(N)C(=O)O; Palmitoyl = CCCCCCCCCCCCCCCC(=O)*; X2 = O=C(CCc1ccc(N[*:1])cc1)[*:2]; X1 = O=C(Cc1ccc(N[*:1])cc1)[*:2]; Myristoyl = CCCCCCCCCCCCCC(=O)*; X13 = O=C(CCCCCCCCCCOc1ccccc1)*; ξAbu(3ξ-NH2) = CC(N)C(N)C(=O)O; Lauroyl = CCCCCCCCCCCC(=O)*; Decanoyl = CCCCCCCCCC(=O)*; X19 = CCCCCCCCCCS(=O)(=O)*; Octanoyl = CCCCCCCC(=O)*; Pip = O=C(O)[CH]1CCCCN1; ξD = NC(CC(=O)O)C(=O)O; ξPip = O=C(O)C1CCCCN1; ξV = CC(C)C(N)C(=O)O; ξP = O=C(O)C1CCCN1; OtBu = CC(C)(C)O*

Test system: Staphylococcus aureus (MSSA)
Method in brief: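 Broth microdilution MIC per NCCLS M7-A6 with doubling serial dilutions, in cation-adjusted Mueller-Hinton broth supplemented with 0.625 mM calcium.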

Row | SMILES | MIC (24 h) [µg/mL] | MIC (S. aureus (MSSA), CAMHB supplemented with 0.625 mM calcium, 24 hours at about 37° C., a range = compound tested multiple times) [µg/mL]
1 | CCCCCCCCCCCCCCCCS(=O)(=O)NCC(=O)NC(CC(=O)O)C(=O)NC1C(=O)N2CCCCC2C(=O)NC(C(C)C(=O)O)C(=O)NC(CC(=O)O)C(=O)NCC(=O)NC(CC(=O)O)C(=O)NCC(=O)NC(C(C)N)C(=O)NC(C(C)C)C(=O)N2CCCC2C(=O)NC1C (stereo not drawn) [Compound 99, CH3—(CH2)15—SO2-Gly-Amphomycin] (Hexadecanesulfonyl-GD[ξAbu(βξ-NH2)][Pip][ξAsp(βξ-Me)]DGDG[ξAbu(3ξ-NH2)]VP; lactam 3-C; configuration not given here) | 0.5 to 1 | 
2 | CCCCCCCCCCS(=O)(=O)N[C@@H](Cc1ccccc1)C(=O)NC(CC(=O)O)C(=O)NC1C(=O)N2CCCCC2C(=O)NC(C(C)C(=O)O)C(=O)NC(CC(=O)O)C(=O)NCC(=O)NC(CC(=O)O)C(=O)NCC(=O)NC(C(C)N)C(=O)NC(C(C)C)C(=O)N2CCCC2C(=O)NC1C (stereo partly drawn) [Compound 100, CH3—(CH2)9—SO2-Phe-Amphomycin] (X19-F[ξD][ξAbu(βξ-NH2)][ξPip][ξAsp(βξ-Me)][ξD]G[ξD]G[ξAbu(3ξ-NH2)][ξV][ξP]; lactam 3-C) | 4 | 
3 | CCCCCCCCCCS(=O)(=O)NCC(=O)NC(CC(=O)O)C(=O)NC1C(=O)N2CCCCC2C(=O)NC(C(C)C(=O)O)C(=O)NC(CC(=O)O)C(=O)NCC(=O)NC(CC(=O)O)C(=O)NCC(=O)NC(C(C)NC(=O)[C@@H](N)CCCCN)C(=O)NC(C(C)C)C(=O)N2CCCC2C(=O)NC1C (stereo partly drawn) [Compound 101, CH3—(CH2)9—SO2-Gly-Amphomycin-9-Lys] (X19-G[ξD][ξAbu(βξ-NH2)][ξPip][ξAsp(βξ-Me)][ξD]G[ξD]G[X37][ξV][ξP]; lactam 3-C) | 32 | 
4 | CCCCCCCCCCS(=O)(=O)NCC(=O)NC(CC(=O)O)C(=O)NC1C(=O)N2CCCCC2C(=O)NC(C(C)C(=O)O)C(=O)NC(CC(=O)O)C(=O)NCC(=O)NC(CC(=O)O)C(=O)NCC(=O)NC(C(C)NC(=O)CN)C(=O)NC(C(C)C)C(=O)N2CCCC2C(=O)NC1C (stereo not drawn) [Compound 102, CH3—(CH2)9—SO2-Gly-Amphomycin-9-Gly] (X19-GD[ξAbu(βξ-NH2)][Pip][ξAsp(βξ-Me)]DGDG[ξAbu(3ξ-NHCOCH2NH2)]VP; lactam 3-C; configuration not given here) | 8 | 
5 | CCCCCCCCCCCC(=O)NCC(=O)NC(CC(=O)O)C(=O)NC1C(=O)N2CCCCC2C(=O)NC(C(C)C(=O)O)C(=O)NC(CC(=O)O)C(=O)NCC(=O)NC(CC(=O)O)C(=O)NCC(=O)NC(C(C)N)C(=O)NC(C(C)C)C(=O)N2CCCC2C(=O)NC1C (stereo not drawn) [Compound 103, C12-Gly-Amphomycin] (Lauroyl-GD[ξAbu(βξ-NH2)][Pip][ξAsp(βξ-Me)]DGDG[ξAbu(3ξ-NH2)]VP; lactam 3-C; configuration not given here) | 8 to 16 | 
6 | CCCCCCCC(=O)Nc1ccc(CC(=O)NC(CC(=O)O)C(=O)NC2C(=O)N3CCCCC3C(=O)NC(C(C)C(=O)O)C(=O)NC(CC(=O)O)C(=O)NCC(=O)NC(CC(=O)O)C(=O)NCC(=O)NC(C(C)N)C(=O)NC(C(C)C)C(=O)N3CCCC3C(=O)NC2C)cc1 (stereo not drawn) [Compound 104, C8-(p-Apa)-Amphomycin] (Octanoyl-[X1]D[ξAbu(βξ-NH2)][Pip][ξAsp(βξ-Me)]DGDG[ξAbu(3ξ-NH2)]VP; lactam 3-C; configuration not given here) | 2 | 
7 | CCCCCCCCCCCCCC(=O)NCC(=O)NC(CC(=O)O)C(=O)NC1C(=O)N2CCCCC2C(=O)NC(C(C)C(=O)O)C(=O)NC(CC(=O)O)C(=O)NCC(=O)NC(CC(=O)O)C(=O)NCC(=O)NC(C(C)N)C(=O)NC(C(C)C)C(=O)N2CCCC2C(=O)NC1C (stereo not drawn) [Compound 105, C14-Gly-Amphomycin] (Myristoyl-GD[ξAbu(βξ-NH2)][Pip][ξAsp(βξ-Me)]DGDG[ξAbu(3ξ-NH2)]VP; lactam 3-C; configuration not given here) | 0.5 | 
8 | CCCCCCCCCCCC(=O)Nc1ccc(CCC(=O)Nc2ccc(CCC(=O)NC(CC(=O)O)C(=O)NC3C(=O)N4CCCCC4C(=O)NC(C(C)C(=O)O)C(=O)NC(CC(=O)O)C(=O)NCC(=O)NC(CC(=O)O)C(=O)NCC(=O)NC(C(C)N)C(=O)NC(C(C)C)C(=O)N4CCCC4C(=O)NC3C)cc2)cc1 (stereo not drawn) [Compound 109, C12-(p-Aminophenylpropanoyl)2-Amphomycin] (Lauroyl-[X2][X2]D[ξAbu(βξ-NH2)][Pip][ξAsp(βξ-Me)]DGDG[ξAbu(3ξ-NH2)]VP; lactam 4-C; configuration not given here) |  | 2

More lines, main results first:

Row | MIC (24 h) [µg/mL] | SMILES | MIC (S. aureus (MSSA), CAMHB supplemented with 0.625 mM calcium, 24 hours at about 37° C., a range = compound tested multiple times) [µg/mL]
9 | 0.5 | CCCCCCCCCCCCCCCC(=O)NCC(=O)NC(CC(=O)O)C(=O)NC1C(=O)N2CCCCC2C(=O)NC(C(C)C(=O)O)C(=O)NC(CC(=O)O)C(=O)NCC(=O)NC(CC(=O)O)C(=O)NCC(=O)NC(C(C)N)C(=O)NC(C(C)C)C(=O)N2CCCC2C(=O)NC1C (stereo not drawn) [Compound 106, C16-Gly-Amphomycin] (Palmitoyl-GD[ξAbu(βξ-NH2)][Pip][ξAsp(βξ-Me)]DGDG[ξAbu(3ξ-NH2)]VP; lactam 3-C; configuration not given here) | 
10 | 2 | CCCCCCCCCCCCCCCCCC(=O)NCC(=O)NC(CC(=O)O)C(=O)NC1C(=O)N2CCCCC2C(=O)NC(C(C)C(=O)O)C(=O)NC(CC(=O)O)C(=O)NCC(=O)NC(CC(=O)O)C(=O)NCC(=O)NC(C(C)N)C(=O)NC(C(C)C)C(=O)N2CCCC2C(=O)NC1C (stereo not drawn) [Compound 107, C18-Gly-Amphomycin] (Stearoyl-GD[ξAbu(βξ-NH2)][Pip][ξAsp(βξ-Me)]DGDG[ξAbu(3ξ-NH2)]VP; lactam 3-C; configuration not given here) | 
11 | 0.5 | CCCCCCCCCCOc1ccc(C(=O)NCC(=O)NC(CC(=O)O)C(=O)NC2C(=O)N3CCCCC3C(=O)NC(C(C)C(=O)O)C(=O)NC(CC(=O)O)C(=O)NCC(=O)NC(CC(=O)O)C(=O)NCC(=O)NC(C(C)N)C(=O)NC(C(C)C)C(=O)N3CCCC3C(=O)NC2C)cc1 (stereo not drawn) [Compound 110, CH3—(CH2)9—O-p-Ph-C(═O)-Gly-Amphomycin] ({Benzoyl(4-OC10H21)}-GD[ξAbu(βξ-NH2)][Pip][ξAsp(βξ-Me)]DGDG[ξAbu(3ξ-NH2)]VP; lactam 3-C; configuration not given here) | 
12 | 0.5 to 1 | CCCCCCCCCCCC(=O)Nc1cccc(CC(=O)NC(CC(=O)O)C(=O)NC2C(=O)N3CCCCC3C(=O)NC(C(C)C(=O)O)C(=O)NC(CC(=O)O)C(=O)NCC(=O)NC(CC(=O)O)C(=O)NCC(=O)NC(C(C)N)C(=O)NC(C(C)C)C(=O)N3CCCC3C(=O)NC2C)c1 (stereo not drawn) [Compound 111, C12-(M-Apa)-Amphomycin] (Lauroyl-[Phac(3-amino)]D[ξAbu(βξ-NH2)][Pip][ξAsp(βξ-Me)]DGDG[ξAbu(3ξ-NH2)]VP; lactam 3-C; configuration not given here) | 
13 | 0.5 | CCCCCCCCCCCCCCC(=O)N[C@@H](CC(=O)OC(C)(C)C)C(=O)NC(CC(=O)O)C(=O)NC1C(=O)N2CCCCC2C(=O)NC(C(C)C(=O)O)C(=O)NC(CC(=O)O)C(=O)NCC(=O)NC(CC(=O)O)C(=O)NCC(=O)NC(C(C)N)C(=O)NC(C(C)C)C(=O)N2CCCC2C(=O)NC1C (stereo partly drawn) [Compound 112, C15-[Asp-(OtBu)]-Amphomycin] (Pentadecanoyl-D(OtBu)[ξD][ξAbu(βξ-NH2)][ξPip][ξAsp(βξ-Me)][ξD]G[ξD]G[ξAbu(3ξ-NH2)][ξV][ξP]; lactam 3-C) | 
14 | 16 | CCCCCCCCCC(=O)Nc1cccc(CC(=O)NC(CC(=O)O)C(=O)NC2C(=O)N3CCCCC3C(=O)NC(C(C)C(=O)O)C(=O)NC(CC(=O)O)C(=O)NCC(=O)NC(CC(=O)O)C(=O)NCC(=O)NC(C(C)N)C(=O)NC(C(C)C)C(=O)N3CCCC3C(=O)NC2C)c1 (stereo not drawn) [Compound 113, C10-(M-Apa)-Amphomycin] (Decanoyl-[Phac(3-amino)]D[ξAbu(βξ-NH2)][Pip][ξAsp(βξ-Me)]DGDG[ξAbu(3ξ-NH2)]VP; lactam 3-C; configuration not given here) | 
15 | 2 | CCCCCCCCCCCCCCC(=O)N[C@H](C(=O)NC(CC(=O)O)C(=O)NC1C(=O)N2CCCCC2C(=O)NC(C(C)C(=O)O)C(=O)NC(CC(=O)O)C(=O)NCC(=O)NC(CC(=O)O)C(=O)NCC(=O)NC(C(C)N)C(=O)NC(C(C)C)C(=O)N2CCCC2C(=O)NC1C)c1ccccc1 (stereo partly shown) [Compound 115, C15-Phg-Amphomycin] | 
16 | 1 | CCCCCCCCCCCCCCC(=O)N[C@H](Cc1ccccc1)C(=O)NC(CC(=O)O)C(=O)NC1C(=O)N2CCCCC2C(=O)NC(C(C)C(=O)O)C(=O)NC(CC(=O)O)C(=O)NCC(=O)NC(CC(=O)O)C(=O)NCC(=O)NC(C(C)N)C(=O)NC(C(C)C)C(=O)N2CCCC2C(=O)NC1C (stereo partly drawn) [Compound 116, C15-(D-Phe)-Amphomycin] (Pentadecanoyl-[dF][ξD][ξAbu(βξ-NH2)][ξPip][ξAsp(βξ-Me)][ξD]G[ξD]G[ξAbu(3ξ-NH2)][ξV][ξP]; lactam 3-C) | 
17 | 8 | CC(C)C1NC(=O)C(C(C)N)NC(=O)CNC(=O)C(CC(=O)O)NC(=O)CNC(=O)C(CC(=O)O)NC(=O)C(C(C)C(=O)O)NC(=O)C2CCCCN2C(=O)C(NC(=O)C(CC(=O)O)NC(=O)CNC(=O)CCCCCCCCCCOc2ccccc2)C(C)NC(=O)C2CCCN2C1=O (stereo not drawn) [Compound 117, Ph-O—(CH2)11-Gly-Amphomycin] (X13-GD[ξAbu(βξ-NH2)][Pip][ξAsp(βξ-Me)]DGDG[ξAbu(3ξ-NH2)]VP; lactam 3-C; configuration not given here; N-terminus assumed) | 
18 | 2 | CCCCCCCCCC(=O)N[C@@H](Cc1csc2ccccc12)C(=O)NC(CC(=O)O)C(=O)NC1C(=O)N2CCCCC2C(=O)NC(C(C)C(=O)O)C(=O)NC(CC(=O)O)C(=O)NCC(=O)NC(CC(=O)O)C(=O)NCC(=O)NC(C(C)N)C(=O)NC(C(C)C)C(=O)N2CCCC2C(=O)NC1C (stereo partly drawn) [Compound 118, C10-(L-BBTA)-Amphomycin] (Decanoyl-[Bta][ξD][ξAbu(βξ-NH2)][ξPip][ξAsp(βξ-Me)][ξD]G[ξD]G[ξAbu(3ξ-NH2)][ξV][ξP]; lactam 3-C) | 
19 | 0.5 | CCCCCCCCCCCC(=O)Nc1ccc(/C=C/C(=O)NC(CC(=O)O)C(=O)NC2C(=O)N3CCCCC3C(=O)NC(C(C)C(=O)O)C(=O)NC(CC(=O)O)C(=O)NCC(=O)NC(CC(=O)O)C(=O)NCC(=O)NC(C(C)N)C(=O)NC(C(C)C)C(=O)N3CCCC3C(=O)NC2C)cc1 (stereo not drawn) [Compound 120, C12-(p-Amino-Trans-Cinnamyl)-Amphomycin] (Lauroyl-[X8]D[ξAbu(βξ-NH2)][Pip][ξAsp(βξ-Me)]DGDG[ξAbu(3ξ-NH2)]VP; lactam 3-C; configuration not given here) | 
